Values of other authors as cited in patent publication US20230218796A1, “Tissue adhesive for use in a treatment method in which an ophthalmological implant is implanted in a human or animal patient, and ophthalmological implantation system” (priority 2020, published 2023).

Legend:
[1] = tested on: epithelial cell layer of the cornea; details: free thapsigargin released into the aqueous humor in the anterior chamber
[2] = tested on: cell growth in the capsular bag

C/C=C(/C)C(=O)O[C@H]1C(C)=C2[C@H]([C@@H]1OC(=O)CCCCCCC)[C@@](C)(OC(C)=O)C[C@H](OC(=O)CCC)[C@@]1(O)[C@H]2OC(=O)[C@@]1(C)O [thapsigargin]
damage to the cornea on free release into the aqueous humor in the anterior chamber [1]: can damage the epithelial cell layer of the cornea
higher concentration that induces cell death ([2]; higher concentrations): 10 to 100 µM
low concentration that greatly reduces cell growth in the capsular bag ([2]; low concentrations): 100 nM
